pIC50: −log10 of the molar value.

Broadly, the pIC50 is the negative decadic logarithm of the IC50, by convention in mol/L.

The experiment deals with interaction between p53 and MDM2 proteins (recombinant GST-tagged MDM2) (Homo sapiens, UniProt Q00987). Kind of experiment: ELISA of inhibition of p53-MDM2 interaction (GST-tagged MDM2 binding to immobilized p53-like peptide). Particulars: absorption at 450 nm, triplicate. (In general: ELISA stands for enzyme-linked immunosorbent assay.)
Sequence of interaction between p53 and MDM2 proteins (recombinant GST-tagged MDM2) (Q00987 whole entry): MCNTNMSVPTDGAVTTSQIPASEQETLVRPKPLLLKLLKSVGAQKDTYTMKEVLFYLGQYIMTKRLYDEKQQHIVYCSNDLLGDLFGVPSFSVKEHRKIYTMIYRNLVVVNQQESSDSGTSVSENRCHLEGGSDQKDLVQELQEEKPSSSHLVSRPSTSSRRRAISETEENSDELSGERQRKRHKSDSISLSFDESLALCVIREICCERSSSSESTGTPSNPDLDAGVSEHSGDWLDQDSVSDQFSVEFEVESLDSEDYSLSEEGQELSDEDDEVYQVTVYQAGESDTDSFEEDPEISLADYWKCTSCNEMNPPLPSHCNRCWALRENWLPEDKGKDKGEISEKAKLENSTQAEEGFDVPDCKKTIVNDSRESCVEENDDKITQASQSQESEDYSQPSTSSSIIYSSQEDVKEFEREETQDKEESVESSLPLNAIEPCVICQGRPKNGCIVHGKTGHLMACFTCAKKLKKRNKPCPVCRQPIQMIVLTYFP
Turning to `CCC[C@H]1N=C(c2ccc(OC)cc2OCC)N(C(=O)N2CCC(N3CCCC3)CC2)[C@H]1c1ccc(Cl)cc1` (stereo in doubt) [Example 26, [5-(4-Chloro-phenyl)-2-(2-ethoxy-4-methoxy-phenyl)-4-propyl-4,5-dihydro-imidazol-1-yl]-(4-pyrrolidin-1-yl-piperidin-1-yl)-methanone], the pIC50 was 4.35.

Consider `CCOc1cc(OC)ccc1C1=N[C@H](CC2CCCC2)[C@H](c2ccc(Cl)cc2)N1C(=O)N1CCN(C)CC1` (stereo in doubt) [Example 24, [5-(4-Chloro-phenyl)-4-cyclopentylmethyl-2-(2-ethoxy-4-methoxy-phenyl)-4,5-dihydro-imidazol-1-yl]-(4-methyl-piperazin-1-yl)-methanone], for which the pIC50 is 4.88.

For the compound `CCOc1cc(OC)ccc1C1=N[C@H](CC2CCCC2)[C@H](c2ccc(Cl)cc2)N1C(=O)N1CCC(N2CCCC2)CC1` (relative stereo) [Example 28, [5-(4-Chloro-phenyl)-4-cyclopentylmethyl-2-(2-ethoxy-4-methoxy-phenyl)-4,5-dihydro-imidazol-1-yl]-(4-pyrrolidin-1-yl-piperidin-1-yl)-methanone], the pIC50 is 5.26.

In the case of `CCCCC[C@H]1N=C(c2ccc(OC)cc2OCC)N(C(=O)N2CCC(N3CCCC3)CC2)[C@H]1c1ccc(Cl)cc1` (relative stereo) [Example 55, [5-(4-Chloro-phenyl)-2-(2-ethoxy-4-methoxy-phenyl)-4-pentyl-4,5-dihydro-imidazol-1-yl]-(4-pyrrolidin-1-yl-piperidin-1-yl)-methanone], the pIC50 was 6.15.

The values above are taken from US7132421B2, “CIS-imidazoles” (Hoffmann-La Roche Inc., priority 2003, dated 2006).
